From patent US10149809B2, “Skin aging inhibitor and concentrate of resveratrol 3-O-α-glucoside” (priority 2014, dated 2018)

Experiments:
[1] = SOD-like activity (SOD Test Wako kit); format: biochemical
Method: Resveratrol 3-O-α-glucoside was dissolved in a 15% ethanol solution to a concentration of 5, 10, or 20 mmol/L, and the resulting solution was used as a sample solution.
Using the sample solution prepared as above, the SOD-like activity was evaluated using an SOD measurement kit (SOD Test Wako; Wako Pure Chemical Industries, Ltd.).

IL-1β gene = experiment: Anti-inflammatory effect: IL-1β gene expression after Poly I:C-induced inflammation; format: cell-based; conditions: normal human epidermal keratinocytes, Poly I:C 1 μg/mL 9 hours, then 0.001 wt % for 15 hours; control = 100%, comparative group (Poly I:C only) 1210
Method: Normal human epidermal keratinocytes were seeded into 12-well culture plates at 5×10^4 cells per well. As the medium, EpiLife KG-2 medium supplemented with insulin, the human […] growth factor (hEGF), hydrocortisone, anti-microbial agents, and bovine pituitary extract (BPE) was used (basal medium), and the cells were preincubated in 5% CO2 at 37° C. for 48 hours. Further, the cells were incubated for additional 48 hours in a medium obtained by removing hydrocortisone only from the basal medium (assay medium). Next, the medium was replaced with an inflammation-inducing medium obtained by supplementing the assay medium with Poly I:C (double strand of inosine ribonucleotide and cytidine ribonucleotide strands) to a concentration of 1 μg/mL, and the cells were cultured for 9 hours, thus preparing an inflammation model. […] After the culture, total RNA was extracted from the cells, and the level of expression of the proinflammatory cytokine IL-1β gene was quantified by real time PCR. […]
Taking as 100% the level of expression of the IL-1β gene for the control group, a relative ratio of the expression level of the IL-1β gene for each of the comparative group and the resveratrol 3-O-α-glucoside-supplemented group (IL-1β gene expression ratio, %) was calculated. […]

[2] = system: matrix metalloproteinase 1 (MMP1) gene; experiment: MMP1 gene expression in normal human dermal fibroblasts; format: cell-based; conditions: 0.001 wt %, 24 hours, control = 100%
Method: Using normal human dermal fibroblasts, the effect of resveratrol 3-O-α-glucoside on matrix metalloproteinase 1 (MMP1) and 9 (MMP9) genes in the dermis was investigated.
Normal human dermal fibroblasts were seeded into 12-well culture plates at 9×10^4 cells per well. As the medium, 10 vol % FBS (Fetal Bovine Serum)-containing DMEM medium (basal medium) was used, and the cells were preincubated in 5% CO2 at 37° C. for 24 hours. The medium was removed and then replaced with a basal medium supplemented with 0.001 wt % of resveratrol 3-O-α-glucoside, and the cells were cultured in 5% CO2 at 37° C. After 24 hours, total RNA was extracted from the cells, and the levels of expression of the MMP1 and MMP9 genes were quantified by real time PCR. As a control group, cells were cultured without resveratrol 3-O-α-glucoside, and total RNA collected from these cells was used.
Taking as 100% the level of expression of each of the MMP1 and MMP9 genes for the control group, a relative ratio of the expression level of each of the MMP1 and MMP9 genes for the resveratrol 3-O-α-glucoside-supplemented group (MMP1 and MMP9 gene expression ratios, %) was determined. In the measurement of the expression level of each of the MMP1 and MMP9 genes, GAPDH (glyceraldehyde 3-phosphate dehydrogenase) was used for internal standard correction.

[3] = system: skin model (EPI-200X; MatTek); format: in vitro ADME, human
Method: Using a three-dimensional human skin model, permeabilities of resveratrol 3-O-α-glucoside and resveratrol into the skin model when administered via the skin surface were compared.
Resveratrol 3-O-α-glucoside or resveratrol (Tokyo Chemical Industry Co., Ltd.) was prepared into a 0.2 wt % solution or suspension with the addition of PBS, and the resulting solution was used as a test substance. The skin model (EPI-200X; MatTek) was loaded into a special fixture (EPI-100-FIX; MatTek), and placed in the 6-well plate of the receiver. One-hundred microliters of the test substance were added to the horny layer side, and 5 mL of PBS was added to the receiver side. After being allowed to stand at 37° C. for 20 hours, the skin model was collected, and the surface of the skin model was washed well with PBS. The skin model after being washed was homogenized in PBS. After the homogenate was centrifuged, resveratrols in the supernatant were quantified using HPLC under the same conditions as described in Production Example 1 above, and the amount of resveratrols was converted into the equivalent of agly cones.

[4] = Storage stability in 30 vol % aqueous ethanol (coloration, residual content); format: physicochemical; conditions: 2 mM in 30 vol % aqueous ethanol, 40° C., light-tight, 6 months
Method: Each of resveratrol 3-O-α-glucoside (produced in Production Example 1), resveratrol (Tokyo Chemical Industry Co., Ltd.), and resveratrol 4′-O-α-glucoside (produced in Production Example 1) was dissolved in a 30 vol % aqueous solution of ethanol to a concentration of 2 mM, and the solution was stored at 40° C. under light-tight conditions. The coloration of the solution after being stored for 6 months was visually observed. Further, absorbances at 430 nm of the solution before and after the storage were measured, and the residual amount of each of the components in the solution was analyzed using HPLC. HPLC was performed under the same conditions as those described in Production Example 1.

[5] = Non-Patent Literature 3; cited from earlier work

SMILES | SOD-Like Activity (%) ([1]; 5 mmol/L in the sample solution (15% ethanol)) | SOD-Like Activity (%) ([1]; 10 mmol/L in the sample solution (15% ethanol)) | SOD-Like Activity (%) ([1]; 20 mmol/L in the sample solution (15% ethanol)) | IL-1β Gene Expression Ratio (%) (IL-1β gene) | MMP1 Gene Expression Ratio (%) [2] [%] | amount of permeation into the skin model relative to resveratrol [3] [times] | Coloration: Difference between Absorbances at 430 nm (Δ A 430) before and after Storage [4] | Coloration: Visual Observation [4] | Residual Content (%) ([4]; HPLC) | water solubility [5] | water solubility relative to that of resveratrol [5]
OC[C@H]1O[C@H](Oc2cc(O)cc(C=Cc3ccc(O)cc3)c2)[C@H](O)[C@@H](O)[C@@H]1O [Resveratrol 3-O-α-Glucoside, resveratrol 3-O-α-glucoside] | 18 | 35 | 47 | 885 | 85 | 3.5 | 0.03 | colorless | 93 |  | 
OC[C@H]1O[C@@H](Oc2cc(O)cc(/C=C/c3ccc(O)cc3)c2)[C@H](O)[C@@H](O)[C@@H]1O [Resveratrol 3-O-β-Glucoside, resveratrol 3-O-β-glucoside] |  |  |  |  |  |  |  |  |  | approximately 400 μg/mL | approximately 10 fold
